This note sets out measurements from ChEMBL document CHEMBL3352461, “Discovery and optimization of 5-fluoro-4,6-dialkoxypyrimidine GPR119 agonists” (Bioorg Med Chem Lett, 2014).

Data set [1] addresses T1, Glucose-dependent insulinotropic receptor (Homo sapiens, UniProt Q8TDV5).
T1 sequence (Q8TDV5 whole entry): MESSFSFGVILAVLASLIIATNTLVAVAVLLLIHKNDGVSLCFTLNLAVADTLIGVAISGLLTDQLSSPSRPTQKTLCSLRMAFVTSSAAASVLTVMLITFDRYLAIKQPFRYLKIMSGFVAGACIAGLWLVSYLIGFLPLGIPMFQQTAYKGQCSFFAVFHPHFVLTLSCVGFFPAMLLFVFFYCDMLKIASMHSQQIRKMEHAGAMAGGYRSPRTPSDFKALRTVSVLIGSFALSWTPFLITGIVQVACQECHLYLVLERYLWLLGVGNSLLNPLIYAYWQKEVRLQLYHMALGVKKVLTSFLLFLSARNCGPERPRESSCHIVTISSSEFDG
Kind of data set: […] of human GPR119 activity by homogeneous time resolved fluorescence cyclase (cAMP) assay. Format: functional.

The target in data set [2] is T2, Glucose-dependent insulinotropic receptor (Homo sapiens) (UniProt Q8TDV5).
T2 sequence (whole entry): T1 sequence (Q8TDV5 whole entry)
Kind of data set: […] of human GPR119 activity by homogeneous time resolved fluorescence cyclase (cAMP) assay relative to AR231453. Format: functional.

The target in data set [3] is T3, Glucose-dependent insulinotropic receptor (Rattus norvegicus, UniProt Q7TQN8).
T3 sequence (Q7TQN8 whole entry): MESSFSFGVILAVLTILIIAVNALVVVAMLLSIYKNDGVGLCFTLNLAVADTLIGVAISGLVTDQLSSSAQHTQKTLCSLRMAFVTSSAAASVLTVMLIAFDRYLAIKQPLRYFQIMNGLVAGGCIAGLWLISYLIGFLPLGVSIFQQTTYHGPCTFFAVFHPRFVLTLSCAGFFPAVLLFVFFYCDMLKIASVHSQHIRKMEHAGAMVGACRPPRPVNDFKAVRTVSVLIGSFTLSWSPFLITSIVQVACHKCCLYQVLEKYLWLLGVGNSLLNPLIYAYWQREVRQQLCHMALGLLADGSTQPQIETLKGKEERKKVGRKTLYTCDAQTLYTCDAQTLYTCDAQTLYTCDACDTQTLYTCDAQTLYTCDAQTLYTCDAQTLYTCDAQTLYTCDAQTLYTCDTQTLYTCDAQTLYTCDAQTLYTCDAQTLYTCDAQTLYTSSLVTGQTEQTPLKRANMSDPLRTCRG
Kind of data set: […] of rat GPR119 activity by homogeneous time resolved fluorescence cyclase (cAMP) assay. It counts as functional.

For data set [4], the target named is T4, Glucose-dependent insulinotropic receptor (Rattus norvegicus) (UniProt Q7TQN8).
T4 sequence (whole entry): T3 sequence (Q7TQN8 whole entry)
Kind of data set: […] of rat GPR119 activity by homogeneous time resolved fluorescence cyclase (cAMP) assay relative to AR231453. Format: functional.

The target of data set [5] is Cytochrome P450 2C9 (Homo sapiens, UniProt P11712). Kind of data set: Inhibition of CYP2C9 (unknown origin). It counts as ADME.
Sequence of Cytochrome P450 2C9 (P11712 whole entry): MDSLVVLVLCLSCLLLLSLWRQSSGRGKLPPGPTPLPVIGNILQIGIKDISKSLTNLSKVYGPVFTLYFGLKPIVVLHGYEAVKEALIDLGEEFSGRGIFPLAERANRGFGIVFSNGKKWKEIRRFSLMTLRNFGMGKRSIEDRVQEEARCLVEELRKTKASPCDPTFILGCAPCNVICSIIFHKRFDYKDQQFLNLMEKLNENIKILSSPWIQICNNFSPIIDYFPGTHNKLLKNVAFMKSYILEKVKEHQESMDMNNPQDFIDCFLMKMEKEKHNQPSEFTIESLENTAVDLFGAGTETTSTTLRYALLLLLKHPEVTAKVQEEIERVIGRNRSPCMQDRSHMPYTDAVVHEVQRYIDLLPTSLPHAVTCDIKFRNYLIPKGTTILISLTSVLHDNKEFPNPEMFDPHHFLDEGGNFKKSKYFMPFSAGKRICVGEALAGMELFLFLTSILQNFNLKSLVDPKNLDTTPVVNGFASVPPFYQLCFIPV
Data set [6] concerns the target Cytochrome P450 3A4 (Homo sapiens, UniProt P08684). Kind of data set: Inhibition of CYP3A4 (unknown origin). It counts as ADME.
Data set [7] concerns the target Cytochrome P450 2D6 (Homo sapiens, UniProt P10635). Kind of data set: Inhibition of CYP2D6 (unknown origin). Format: ADME.
Data set [8] deals with T5, Cytochrome P450 1A2 (Homo sapiens, UniProt P05177).
T5 sequence (P05177 whole entry): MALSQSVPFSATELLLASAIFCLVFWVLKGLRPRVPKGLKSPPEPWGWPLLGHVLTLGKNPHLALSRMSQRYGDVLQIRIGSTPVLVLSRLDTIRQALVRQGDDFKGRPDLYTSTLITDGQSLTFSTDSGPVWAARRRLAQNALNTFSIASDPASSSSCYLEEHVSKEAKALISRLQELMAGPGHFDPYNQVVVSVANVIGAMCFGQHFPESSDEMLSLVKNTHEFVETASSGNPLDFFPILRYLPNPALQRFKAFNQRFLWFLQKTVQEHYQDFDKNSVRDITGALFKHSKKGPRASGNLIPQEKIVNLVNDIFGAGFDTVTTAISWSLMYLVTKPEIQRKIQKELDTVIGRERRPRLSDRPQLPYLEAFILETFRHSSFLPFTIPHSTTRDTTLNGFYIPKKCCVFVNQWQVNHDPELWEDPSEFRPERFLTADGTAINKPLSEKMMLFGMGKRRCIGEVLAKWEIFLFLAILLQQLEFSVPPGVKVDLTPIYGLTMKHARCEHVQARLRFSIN
Kind of data set: Inhibition of CYP1A2 (unknown origin). It counts as ADME.

The target of data set [9] is Cytochrome P450 2C19 (Homo sapiens, UniProt P33261). Kind of data set: Inhibition of CYP2C19 (unknown origin). It counts as ADME.
Sequence of Cytochrome P450 2C19 (P33261 whole entry): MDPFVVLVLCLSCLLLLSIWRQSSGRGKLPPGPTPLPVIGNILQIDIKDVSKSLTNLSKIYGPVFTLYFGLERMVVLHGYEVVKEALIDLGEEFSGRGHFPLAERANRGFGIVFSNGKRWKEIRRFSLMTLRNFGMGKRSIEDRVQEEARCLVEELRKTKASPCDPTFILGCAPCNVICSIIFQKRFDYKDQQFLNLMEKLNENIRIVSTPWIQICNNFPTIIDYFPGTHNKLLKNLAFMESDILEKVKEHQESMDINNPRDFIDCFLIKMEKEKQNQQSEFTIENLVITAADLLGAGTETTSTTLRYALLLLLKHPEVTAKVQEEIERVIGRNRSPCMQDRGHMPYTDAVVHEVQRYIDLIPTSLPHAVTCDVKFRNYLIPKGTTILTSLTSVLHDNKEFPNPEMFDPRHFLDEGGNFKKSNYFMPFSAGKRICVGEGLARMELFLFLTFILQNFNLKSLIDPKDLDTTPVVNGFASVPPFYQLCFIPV
Data set [10] deals with CYP2C9 (Homo sapiens, UniProt P11712). Kind of data set: Ratio of APD597 IC50 to compound IC50 for CYP2C9 (unknown origin). It counts as ADME. As to conditions: read-out: Ratio IC50.
Sequence of CYP2C9 (P11712 whole entry): as the sequence (P11712 whole entry) above
The nature of data set [11]: Efflux ratio of permeability in human Caco2 cells. It counts as ADME, cell-based. Conditions: Caco-2. A general note: Caco-2 cells form a polarised layer with tight junctions and transporters.
Data set [12] in a line: Stability in rat hepatocytes assessed as compound remaining after 90 mins. As to conditions: read-out: Stability. It counts as ADME, cell-based, Hepatocyte.
The nature of data set [13]: Stability in dog hepatocytes assessed as compound remaining after 90 mins. It counts as ADME, cell-based, Canis lupus familiaris, Hepatocyte. Conditions: read-out: Stability.
A short description of data set [14]: Stability in monkey hepatocytes assessed as compound remaining after 90 mins. Format: ADME, cell-based, Macaca mulatta, Hepatocyte. Conditions: rhesus monkey, read-out: Stability.
Data set [15] can be described thus: Stability in human hepatocytes assessed as compound remaining after 90 mins. It counts as ADME, cell-based, Hepatocyte. Conditions: read-out: Stability.
The test system of data set [16] is Rattus norvegicus. Kind of data set: Clearance in Sprague-Dawley rat at 2 mg/kg, iv and po. Format: ADME, organism-based. Also on record: dose 2 mg/kg, route oral. Conditions: in vivo.
The test system of data set [17] is Rattus norvegicus. Kind of data set: Volume of distribution at steady state in Sprague-Dawley rat at 2 mg/kg, iv and po. Format: ADME, organism-based. Further details: dose 2 mg/kg, route oral. Conditions: in vivo.
Data set [18] relates to Rattus norvegicus. Kind of data set: AUClast in Sprague-Dawley rat at 2 mg/kg, iv and po. Format: ADME, organism-based, Plasma. Also on record: dose 2 mg/kg, route oral. Conditions: in vivo.
A short description of data set [19]: Elimination half life in Sprague-Dawley rat at 2 mg/kg, po. It counts as ADME, organism-based. Also on record: dose 2 mg/kg, route oral. As to conditions: in vivo, read-out: beta t1/2 (converted).
Data set [20] concerns Rattus norvegicus. Kind of data set: Bioavailability in Sprague-Dawley rat at 2 mg/kg, iv and po. Conditions: in vivo. It counts as ADME, organism-based.
Data set [21] concerns Mus musculus. Kind of data set: Increase in GIP release in normoglycemic 129SVE mouse at 3 to 10 mg/kg, po measured after 45 mins. Format: functional, organism-based.
Data set [22] concerns Mus musculus. Kind of data set: Reduction in plasma glucose level in normoglycemic 129SVE mouse at 3 to 10 mg/kg, po administered 30 mins prior to challenge measured in 20 mins interval for 120 mins by oral glucose tolerance test relative to vehicle-treated control. Format: functional. Also on record: scale not given: the % may be the effect or the level left. As to conditions: dose mg/kg 3-10.

The test system of data set [23] is Rattus norvegicus. Kind of data set: Reduction in plasma glucose level in Zucker diabetic fatty rat at 10 to 30 mg/kg, po administered 30 mins prior to challenge measured in 20 mins interval for 120 mins by oral glucose tolerance test relative to vehicle-treated control. It counts as functional. Further details: scale not given: the % may be the effect or the level left. Conditions: dose mg/kg 10-30.

The test system of data set [24] is Rattus norvegicus. Kind of data set: Reduction in plasma glucose level in Zucker diabetic fatty rat at 10 to 30 mg/kg, po administered 30 mins prior to challenge measured in 20 mins interval for 120 mins by oral glucose tolerance test relative to vehicle-treated control in presence of sitagliptin. Format: functional. Also on record: scale not given: the % may be the effect or the level left. As to conditions: dose mg/kg 10-30.

Data set [25] deals with Rattus norvegicus. Kind of data set: Reduction in plasma glucose level in Zucker diabetic fatty rat at 3 mg/kg, po administered 30 mins prior to challenge measured in 20 mins interval for 120 mins by oral glucose tolerance test relative to vehicle-treated control. It counts as functional. Further details: scale not given: the % may be the effect or the level left.

In general, EC50 refers to the concentration that produces a half-maximal response. For orientation: IC50 means the concentration needed to halve the response being measured. One may read the efflux ratio as a quotient of directional permeabilities that is used to spot active efflux.

Calls of active or inactive are those of the source. The calls are words filed in the database; no cut-off is given here.

Sequence of Cytochrome P450 3A4 (P08684 whole entry): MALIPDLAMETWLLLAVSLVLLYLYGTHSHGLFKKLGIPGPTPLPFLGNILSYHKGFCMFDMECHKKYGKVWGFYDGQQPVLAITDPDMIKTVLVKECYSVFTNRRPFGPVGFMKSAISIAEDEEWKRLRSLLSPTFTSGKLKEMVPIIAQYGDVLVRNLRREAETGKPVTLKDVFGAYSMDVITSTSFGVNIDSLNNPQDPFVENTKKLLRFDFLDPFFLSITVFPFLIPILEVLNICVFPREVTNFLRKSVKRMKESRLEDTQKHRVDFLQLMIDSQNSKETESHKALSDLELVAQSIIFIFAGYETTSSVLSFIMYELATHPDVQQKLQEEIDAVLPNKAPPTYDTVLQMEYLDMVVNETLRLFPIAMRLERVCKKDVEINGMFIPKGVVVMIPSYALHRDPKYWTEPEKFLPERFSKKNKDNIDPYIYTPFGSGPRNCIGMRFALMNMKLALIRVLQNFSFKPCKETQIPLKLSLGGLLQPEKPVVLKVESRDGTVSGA
Sequence of Cytochrome P450 2D6 (P10635 whole entry): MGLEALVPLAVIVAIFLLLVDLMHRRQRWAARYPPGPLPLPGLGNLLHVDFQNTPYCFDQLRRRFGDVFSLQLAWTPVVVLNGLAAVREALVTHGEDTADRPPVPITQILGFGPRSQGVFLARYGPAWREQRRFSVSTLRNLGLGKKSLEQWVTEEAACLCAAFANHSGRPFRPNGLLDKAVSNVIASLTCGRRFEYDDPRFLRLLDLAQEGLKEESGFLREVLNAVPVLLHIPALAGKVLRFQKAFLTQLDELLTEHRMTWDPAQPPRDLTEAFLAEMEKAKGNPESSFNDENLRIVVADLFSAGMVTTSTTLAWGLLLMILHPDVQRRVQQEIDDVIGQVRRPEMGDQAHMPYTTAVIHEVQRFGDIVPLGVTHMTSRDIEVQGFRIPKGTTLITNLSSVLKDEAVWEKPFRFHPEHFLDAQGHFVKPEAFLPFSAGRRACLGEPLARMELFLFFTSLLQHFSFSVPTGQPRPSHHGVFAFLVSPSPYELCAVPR

As for `Cc1nc(S(C)(=O)=O)ccc1Oc1ncnc(OC2CCN(C(=O)OC3(C)CC3)CC2)c1F`, the results for the EC50 in data set [1] and in data set [3] were 0.0138 µM and 0.169 µM, respectively. In addition, the Efficacy in [2] came out at 94%; in data set [4] it was 93%. The figures for the half-maximal inhibitory concentration (IC50) in data set [5] and in [9] were 25.7 µM and 23.4 µM, respectively. Moreover, the “inhibition (INH)” value in [6], in data set [7] and in [8] was “Not Active” in each case. Besides, the selectivity ratio in [10] was found to be 4. In [11], the efflux ratio came to 1. Besides, the remaining at 1.5 h was found to be 51% in data set [12], 89% in data set [13], 50% in [14] and 100% in data set [15]. The CL in [16] is 19.8 mL/min/kg. The molecule also returned a Vdss in data set [17] of 2.91 L/kg. Also, in data set [18], the AUClast came out at 1220 ng·h/mL. The half-life in data set [19] is 2.71 h. Moreover, the F in data set [20] turned out to be 72.7%. Also, the outcome in data set [21] was Active. For the same molecule, the Activity is reported as 35% in data set [22], 50% in [23] and 70% in data set [24].

Turning to `N[C@@H](CC(=O)N1CCn2c(nnc2C(F)(F)F)C1)Cc1cc(F)c(F)cc1F` [SITAGLIPTIN], the Activity in data set [25] came out at 70%.
